Key:
[1] = target: T1, Aurora kinase C (Homo sapiens) (UniProt Q9UQB9); assay: Inhibition of human full length AurC expressed in baculovirus assessed as substrate phosphorylation using fluorescence-labelled peptides as substrate at 70 uM after 90 mins by microfluidic peptide phosphorylation assay
T1 sequence (whole entry): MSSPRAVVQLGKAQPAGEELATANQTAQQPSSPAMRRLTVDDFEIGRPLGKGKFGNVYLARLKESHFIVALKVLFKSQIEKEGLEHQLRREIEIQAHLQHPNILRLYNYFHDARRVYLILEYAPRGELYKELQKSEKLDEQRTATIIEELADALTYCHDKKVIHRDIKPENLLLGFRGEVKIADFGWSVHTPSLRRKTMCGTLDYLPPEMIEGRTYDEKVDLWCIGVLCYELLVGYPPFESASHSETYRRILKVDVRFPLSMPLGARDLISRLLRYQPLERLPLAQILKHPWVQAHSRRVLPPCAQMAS

[2] = target: Protein kinase C beta type (Homo sapiens) (UniProt P05771); assay: Inhibition of human truncated PKC beta1 expressed in baculovirus assessed as substrate phosphorylation using fluorescence-labelled peptides as substrate at 0.2 uM after 90 mins by microfluidic peptide phosphorylation assay
Protein kinase C beta type (Homo sapiens), sequence (P05771 2-671 limits assumed): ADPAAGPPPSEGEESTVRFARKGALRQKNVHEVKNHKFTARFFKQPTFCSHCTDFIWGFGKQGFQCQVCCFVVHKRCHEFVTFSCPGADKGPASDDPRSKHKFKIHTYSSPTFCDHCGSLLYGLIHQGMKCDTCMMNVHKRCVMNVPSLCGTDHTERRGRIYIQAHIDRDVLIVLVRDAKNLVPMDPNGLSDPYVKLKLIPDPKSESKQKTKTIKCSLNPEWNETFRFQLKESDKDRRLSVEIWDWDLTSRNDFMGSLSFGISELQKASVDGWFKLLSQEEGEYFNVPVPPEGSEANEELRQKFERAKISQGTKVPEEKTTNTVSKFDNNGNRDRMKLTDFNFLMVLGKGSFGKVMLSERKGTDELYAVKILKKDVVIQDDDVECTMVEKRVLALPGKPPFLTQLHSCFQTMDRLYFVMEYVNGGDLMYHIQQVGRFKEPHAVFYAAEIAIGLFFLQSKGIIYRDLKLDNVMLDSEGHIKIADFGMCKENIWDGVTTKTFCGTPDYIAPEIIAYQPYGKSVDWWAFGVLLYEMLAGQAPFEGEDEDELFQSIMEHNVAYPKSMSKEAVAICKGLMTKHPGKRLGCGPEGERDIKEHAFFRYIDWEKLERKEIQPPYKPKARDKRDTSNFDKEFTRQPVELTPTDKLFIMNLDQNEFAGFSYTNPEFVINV

[3] = target: RAC-alpha serine/threonine-protein kinase (Homo sapiens) (UniProt P31749); assay: Inhibition of human AKT1 catalytic domain expressed in baculovirus assessed as substrate phosphorylation using fluorescence-labelled peptides as substrate at 9 uM after 90 mins by microfluidic peptide phosphorylation assay
RAC-alpha serine/threonine-protein kinase (Homo sapiens), sequence (P31749 whole entry, the tested form may be a part): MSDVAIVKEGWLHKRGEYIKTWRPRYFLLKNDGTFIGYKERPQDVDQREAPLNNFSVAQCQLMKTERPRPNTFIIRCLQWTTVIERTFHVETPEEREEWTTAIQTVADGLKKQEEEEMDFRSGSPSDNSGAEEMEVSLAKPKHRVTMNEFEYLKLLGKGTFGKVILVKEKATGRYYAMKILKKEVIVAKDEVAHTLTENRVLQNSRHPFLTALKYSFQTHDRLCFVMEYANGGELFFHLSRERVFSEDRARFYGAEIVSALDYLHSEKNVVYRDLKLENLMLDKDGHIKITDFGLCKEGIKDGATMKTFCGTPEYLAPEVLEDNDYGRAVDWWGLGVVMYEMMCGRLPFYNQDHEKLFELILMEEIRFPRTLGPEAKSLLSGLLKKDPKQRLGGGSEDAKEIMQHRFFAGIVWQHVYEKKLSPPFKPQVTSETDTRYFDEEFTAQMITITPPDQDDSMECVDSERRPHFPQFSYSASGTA

[4] = target: T2, Protein kinase C zeta type (Homo sapiens) (UniProt Q05513); assay: Inhibition of human full length PKC zeta expressed in baculovirus assessed as substrate phosphorylation using fluorescence-labelled peptides as substrate at 9 uM after 90 mins by microfluidic peptide phosphorylation assay
T2 sequence (whole entry): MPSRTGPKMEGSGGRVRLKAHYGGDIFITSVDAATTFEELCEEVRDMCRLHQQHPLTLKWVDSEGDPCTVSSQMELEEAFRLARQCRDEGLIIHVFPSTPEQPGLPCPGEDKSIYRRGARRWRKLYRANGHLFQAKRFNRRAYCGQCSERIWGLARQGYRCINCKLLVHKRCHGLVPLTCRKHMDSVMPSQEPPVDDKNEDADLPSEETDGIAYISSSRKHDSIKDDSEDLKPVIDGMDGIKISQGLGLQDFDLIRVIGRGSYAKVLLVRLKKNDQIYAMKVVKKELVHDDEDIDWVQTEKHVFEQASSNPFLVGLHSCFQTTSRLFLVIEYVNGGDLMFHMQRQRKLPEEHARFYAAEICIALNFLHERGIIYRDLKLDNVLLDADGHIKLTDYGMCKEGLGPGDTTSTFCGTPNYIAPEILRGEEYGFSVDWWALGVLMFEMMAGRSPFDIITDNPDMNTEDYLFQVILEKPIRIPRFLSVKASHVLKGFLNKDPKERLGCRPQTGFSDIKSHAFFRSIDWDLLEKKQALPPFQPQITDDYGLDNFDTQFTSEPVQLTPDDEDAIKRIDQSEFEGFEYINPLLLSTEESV

[5] = target: T3, cGMP-dependent protein kinase 1 (Homo sapiens) (UniProt Q13976); assay: Inhibition of human full length PKG-1beta expressed in baculovirus assessed as substrate phosphorylation using fluorescence-labelled peptides as substrate at 1000 uM after 90 mins by microfluidic peptide phosphorylation assay
T3 sequence (whole entry): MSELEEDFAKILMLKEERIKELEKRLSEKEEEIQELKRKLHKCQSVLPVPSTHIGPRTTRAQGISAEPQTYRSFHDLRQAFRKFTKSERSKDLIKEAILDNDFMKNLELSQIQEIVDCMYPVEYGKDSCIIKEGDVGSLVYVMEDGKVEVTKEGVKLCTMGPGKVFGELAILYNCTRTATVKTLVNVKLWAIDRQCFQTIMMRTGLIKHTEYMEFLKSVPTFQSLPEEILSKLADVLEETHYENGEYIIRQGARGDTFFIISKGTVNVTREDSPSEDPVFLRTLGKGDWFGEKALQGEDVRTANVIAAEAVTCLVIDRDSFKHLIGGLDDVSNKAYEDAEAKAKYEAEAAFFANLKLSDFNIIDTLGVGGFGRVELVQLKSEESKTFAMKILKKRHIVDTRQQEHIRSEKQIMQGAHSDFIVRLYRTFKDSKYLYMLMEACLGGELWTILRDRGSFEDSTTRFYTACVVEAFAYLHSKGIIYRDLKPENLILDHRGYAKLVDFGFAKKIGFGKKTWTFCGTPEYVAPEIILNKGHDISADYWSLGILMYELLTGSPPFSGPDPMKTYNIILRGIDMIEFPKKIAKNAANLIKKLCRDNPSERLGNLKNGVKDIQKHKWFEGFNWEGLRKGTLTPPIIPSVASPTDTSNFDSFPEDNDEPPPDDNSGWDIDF

[6] = target: Protein kinase C beta type (Homo sapiens) (UniProt P05771); assay: Inhibition of human truncated PKC beta1 expressed in baculovirus assessed as substrate phosphorylation using fluorescence-labelled peptides as substrate at 1000 uM after 90 mins by microfluidic peptide phosphorylation assay
[7] = target: Protein kinase C eta type (Homo sapiens) (UniProt P24723); assay: Inhibition of human truncated PKC eta expressed in baculovirus assessed as substrate phosphorylation using fluorescence-labelled peptides as substrate at 2 uM after 90 mins by microfluidic peptide phosphorylation assay
Protein kinase C eta type (Homo sapiens), sequence (P24723 whole entry, the tested form may be a part): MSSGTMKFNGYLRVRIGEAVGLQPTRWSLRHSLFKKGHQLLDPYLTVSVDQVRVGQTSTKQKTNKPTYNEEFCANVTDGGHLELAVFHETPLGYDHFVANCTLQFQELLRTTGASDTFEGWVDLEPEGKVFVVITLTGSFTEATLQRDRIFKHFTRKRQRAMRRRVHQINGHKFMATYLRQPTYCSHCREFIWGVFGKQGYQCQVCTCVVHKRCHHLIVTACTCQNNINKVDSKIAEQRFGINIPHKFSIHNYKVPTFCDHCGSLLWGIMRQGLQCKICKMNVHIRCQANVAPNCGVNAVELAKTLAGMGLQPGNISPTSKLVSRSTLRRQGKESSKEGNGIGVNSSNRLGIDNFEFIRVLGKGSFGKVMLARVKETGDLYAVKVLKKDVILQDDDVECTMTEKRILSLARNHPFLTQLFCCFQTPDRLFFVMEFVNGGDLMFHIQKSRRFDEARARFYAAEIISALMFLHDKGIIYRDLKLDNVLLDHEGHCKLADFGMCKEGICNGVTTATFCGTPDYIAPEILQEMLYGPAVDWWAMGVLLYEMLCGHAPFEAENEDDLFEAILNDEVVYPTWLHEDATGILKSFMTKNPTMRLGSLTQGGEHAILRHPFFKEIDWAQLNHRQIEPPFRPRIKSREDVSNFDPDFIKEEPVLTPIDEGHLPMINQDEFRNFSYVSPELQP

[8] = target: T4, Mitogen-activated protein kinase 12 (Homo sapiens) (UniProt P53778); assay: Inhibition of human full length p38 gamma expressed in Escherichia coli cell assessed as substrate phosphorylation using fluorescence-labelled peptides as substrate at 8 uM after 90 mins by microfluidic peptide phosphorylation assay
T4 sequence (whole entry): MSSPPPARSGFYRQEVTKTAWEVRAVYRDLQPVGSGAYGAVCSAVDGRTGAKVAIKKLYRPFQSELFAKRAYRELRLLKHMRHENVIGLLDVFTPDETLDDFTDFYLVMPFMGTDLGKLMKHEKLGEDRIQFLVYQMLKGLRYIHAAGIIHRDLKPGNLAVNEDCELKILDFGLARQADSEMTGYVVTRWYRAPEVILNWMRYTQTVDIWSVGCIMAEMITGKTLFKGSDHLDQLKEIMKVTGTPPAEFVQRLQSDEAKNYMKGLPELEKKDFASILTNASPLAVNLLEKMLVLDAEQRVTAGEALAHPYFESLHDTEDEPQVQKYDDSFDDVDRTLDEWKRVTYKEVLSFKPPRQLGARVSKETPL

[9] = target: T5, Testis-specific serine/threonine-protein kinase 2 (Homo sapiens) (UniProt Q96PF2); conditions: 0.1 uM
T5 sequence (whole entry): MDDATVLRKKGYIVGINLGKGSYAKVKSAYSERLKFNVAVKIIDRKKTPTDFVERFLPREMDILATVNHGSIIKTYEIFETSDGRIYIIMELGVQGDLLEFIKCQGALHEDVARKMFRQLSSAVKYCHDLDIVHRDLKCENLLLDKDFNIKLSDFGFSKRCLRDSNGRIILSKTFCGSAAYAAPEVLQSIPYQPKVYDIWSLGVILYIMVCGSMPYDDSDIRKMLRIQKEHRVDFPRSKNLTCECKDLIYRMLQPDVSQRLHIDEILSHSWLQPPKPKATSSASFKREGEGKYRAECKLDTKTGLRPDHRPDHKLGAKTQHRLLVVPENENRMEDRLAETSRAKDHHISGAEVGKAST
Description: Inhibition of human full length TSSK2 expressed in baculovirus assessed as substrate phosphorylation using fluorescence-labelled peptides as substrate at 0.1 uM after 90 mins by microfluidic peptide phosphorylation assay

In the case of `CNCc1ccc(-c2ncnc3[nH]cnc23)cc1`, the inhibition [1] is reported as 73%.

`Clc1ccc(C2(c3ccc(-c4ncnc5[nH]cnc45)cc3)CCNCC2)cc1` gave an inhibition [2] of 53%.

For `NCC1CN(c2ncnc3[nH]c4cnccc4c23)CCO1` (centres undefined), the inhibition [3] was 52% and the inhibition [4] was 22%.

With `c1cnc2[nH]ccc2c1` the inhibition [5] was 87% and the inhibition [6] was 46%.

Work on `NC1CCN(c2ncnc3[nH]ccc23)CC1` yielded an inhibition [7] of 56.5%.

Work on `NCC1CCN(c2ncnc3[nH]ccc23)CC1` yielded an inhibition [8] of 5%.

`C[C@H](CN(C)C)Oc1nc(Nc2cc3cccc(Cl)c3cn2)cnc1C#N` was tested, and the inhibition [9] was 0%.
